US6737383B1, “Herbicidal oxadiazolidines” (priority 1999, dated 2004)

Legend:
[1] = tested on: velvetleaf; assay: Test B pre/postemergence velvetleaf; assay type: in vivo, Abutilon theophrasti
How it was run: (§1)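 Response is a visual 0-to-10 score relative to untreated plants, where 0 means no effect and 10 means complete control, taken twelve to sixteen days after application. Treatments went onto soil at planting and onto foliage of 1- to 4-leaf plants, using a surfactant-containing non-phytotoxic solvent.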

[2] = tested on: wheat; assay: Test B pre/postemergence wheat; assay type: in vivo, Triticum aestivum
How it was run: as §1

[3] = tested on: wild oat; assay: Test B pre/postemergence wild oat; assay type: in vivo, Avena fatua
How it was run: as §1

[4] = tested on: corn; assay: Test B pre/postemergence corn; assay type: in vivo, Zea mays
How it was run: as §1

[5] = tested on: surinam grass; assay: Test B pre/postemergence surinam grass; assay type: in vivo, Brachiaria decumbens
How it was run: as §1

[6] = tested on: smallflower flatsedge; assay: Test B flood test smallflower flatsedge; assay type: in vivo, Cyperus difformis
How it was run: (§2)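 Read-out is a visual response score from 0 (no effect) to 10 (complete control), assigned by comparison with untreated controls. Treatment was applied at the 2-leaf stage, and plants stayed in the greenhouse for twelve to sixteen days before scoring.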

[7] = tested on: rice; assay: Test B flood test rice; assay type: in vivo, Oryza sativa
How it was run: as §2

[8] = tested on: soybean; assay: Test B pre/postemergence soybean; assay type: in vivo, Glycine max
How it was run: as §1

[9] = tested on: bedstraw; assay: Test B pre/postemergence bedstraw; assay type: in vivo, Galium aparine
How it was run: as §1

[10] = tested on: giant foxtail; assay: Test B pre/postemergence giant foxtail; assay type: in vivo, Setaria faberii
How it was run: as §1

[11] = tested on: duck salad; assay: Test B flood test duck salad; assay type: in vivo, Heteranthera limosa
How it was run: as §2

[12] = tested on: morningglory; assay: Test B pre/postemergence morningglory; assay type: in vivo, Ipomoea hederacea
How it was run: as §1

[13] = tested on: blackgrass; assay: Test B pre/postemergence blackgrass; assay type: in vivo, Alopecurus myosuroides
How it was run: as §1

[14] = tested on: purple nutsedge; assay: Test B pre/postemergence purple nutsedge; assay type: in vivo, Cyperus rotundus
How it was run: as §1

[15] = tested on: bamyardgrass; assay: Test B flood test barnyardgrass; assay type: in vivo, Echinochloa crus-galli
How it was run: as §2

[16] = tested on: cocklebur; assay: Test B pre/postemergence cocklebur; assay type: in vivo, Xanthium strumarium
How it was run: as §1

[17] = tested on: crabgrass; assay: Test B pre/postemergence crabgrass; assay type: in vivo, Digitaria sanguinalis
How it was run: as §1

[18] = Preemergence, Rate 62 g/ha, scale of 0 to 10 where 0 is no effect and 10 is complete control
[19] = Preemergence, Rate 250 g/ha, scale of 0 to 10 where 0 is no effect and 10 is complete control
[20] = Preemergence, Rate 500 g/ha, scale of 0 to 10 where 0 is no effect and 10 is complete control
[21] = Rate 62 g/ha, Postemergence, scale 0 to 10 (0 no effect, 10 complete control)
[22] = Rate 125 g/ha, Postemergence, scale of 0 to 10 where 0 is no effect and 10 is complete control
[23] = Rate 250 g/ha, Postemergence, scale of 0 to 10 where 0 is no effect and 10 is complete control
[24] = Rate 500 g/ha, Postemergence, scale 0 to 10, 0 no effect, 10 complete control
[25] = Rate 62 g/ha, headed Pre-emergence (flood test species), scale 0 to 10 (0 no effect, 10 complete control)
[26] = Rate 125 g/ha, Pre-emergence, flood test species, scale 0 to 10 where 0 is no effect and 10 is complete control
[27] = Rate 250 g/ha, Pre-emergence, flood-test species, scale 0 to 10, 0 is no effect, 10 is complete control
[28] = Rate 500 g/ha, Pre-emergence, flood test species, scale 0 to 10 (0 no effect, 10 complete control)

`CC(C)N(C(=O)n1oc(=O)n(CCCN(C)C)c1=O)c1ccc(F)cc1` [Compound 323] was tested, and the “Velvetleaf plant response rating” value [1, 18] was 0, the “Velvetleaf plant response rating (0 to 10 scale)” value ([1]; Preemergence, Rate 125 g/ha) was 0 and the “Velvetleaf plant response rating” value [1, 19] was 0. The “Velvetleaf plant response rating” value [1, 20] was 0, the “Velvetleaf plant response rating” value [1, 21] was 0 and the “Velvetleaf plant response rating” value [1, 22] was 0. For the same compound, the “Plant response rating, Velvetleaf” value [1, 23] was 0, the “Plant response rating, Velvetleaf” value [1, 24] was 0 and the “Wheat plant response rating” value [2, 18] was 0. The “Wheat plant response rating (0 to 10 scale)” value ([2]; Preemergence, Rate 125 g/ha) was 0, the “Wheat plant response rating” value [2, 19] was 0 and the “Wheat plant response rating” value [2, 20] was 0. For the same compound, the “Wheat plant response rating” value [2, 21] was 0, the “Wheat plant response rating” value [2, 22] was 0 and the “Plant response rating, Wheat” value [2, 23] was 0. For the same compound, the “Plant response rating, Wheat” value [2, 24] was 0, the “Wild oats plant response rating” value [3, 18] was 0 and the “Wild oats plant response rating (0 to 10 scale)” value ([3]; Preemergence, Rate 125 g/ha) was 0. For the same compound, the “Wild oats plant response rating” value [3, 19] was 0, the “Wild oats plant response rating” value [3, 20] was 0 and the “Wild oats plant response rating” value [3, 21] was 0. The “Wild oats plant response rating” value [3, 22] was 0, the “Plant response rating, Wild oats” value [3, 23] was 0 and the “Plant response rating, Wild oats” value [3, 24] was 0. For the same compound, the “Corn plant response rating” value [4, 18] was 0, the “Corn plant response rating (0 to 10 scale)” value ([4]; Preemergence, Rate 125 g/ha) was 0 and the “Corn plant response rating” value [4, 19] was 0. The “Corn plant response rating” value [4, 20] was 0, the “Corn plant response rating” value [4, 21] was 0 and the “Corn plant response rating” value [4, 22] was 0. The “Plant response rating, Corn” value [4, 23] was 0, the “Plant response rating, Corn” value [4, 24] was 0 and the “B. signalgrass plant response rating” value [5, 18] was 0. For the same compound, the “B. signalgrass plant response rating (0 to 10 scale, 0 is no effect, 10 is complete control)” value ([5]; Preemergence, Rate 125 g/ha) was 0, the “B. signalgrass plant response rating” value [5, 19] was 0 and the “B. signalgrass plant response rating” value [5, 20] was 0. For the same compound, the “B. signalgrass plant response rating” value [5, 21] was 0, the “B. signalgrass plant response rating” value [5, 22] was 0 and the “Plant response rating, B. signalgrass” value [5, 23] was 0. The “Plant response rating, B. signalgrass” value [5, 24] was 0, the “S. Flatsedge plant response rating” value [6, 25] was 0 and the “S. Flatsedge plant response rating” value [6, 26] was 0. For the same compound, the “S. Flatsedge plant response rating” value [6, 27] was 0, the “S. Flatsedge plant response rating” value [6, 28] was 0 and the “Rice plant response rating” value [7, 25] was 0. For the same compound, the “Rice plant response rating” value [7, 26] was 0, the “Rice plant response rating” value [7, 27] was 0 and the “Rice plant response rating” value [7, 28] was 0. For the same compound, the “Soybean plant response rating” value [8, 18] was 0, the “Soybean plant response rating (0 to 10 scale)” value ([8]; Preemergence, Rate 125 g/ha) was 0 and the “Soybean plant response rating” value [8, 19] was 0. For the same compound, the “Soybean plant response rating” value [8, 20] was 0, the “Soybean plant response rating” value [8, 21] was 0 and the “Soybean plant response rating” value [8, 22] was 1. The “Plant response rating, Soybean” value [8, 23] was 2, the “Plant response rating, Soybean” value [8, 24] was 2 and the “Bedstraw plant response rating” value [9, 18] was 0. For the same compound, the “Bedstraw plant response rating (0 to 10 scale)” value ([9]; Preemergence, Rate 125 g/ha) was 0, the “Bedstraw plant response rating” value [9, 19] was 0 and the “Bedstraw plant response rating” value [9, 21] was 0. The “Bedstraw plant response rating” value [9, 22] was 0, the “Giant foxtail plant response rating” value [10, 18] was 0 and the “Giant foxtail plant response rating (0 to 10 scale)” value ([10]; Preemergence, Rate 125 g/ha) was 0. For the same compound, the “Giant foxtail plant response rating” value [10, 19] was 0, the “Giant foxtail plant response rating” value [10, 20] was 2 and the “Giant foxtail plant response rating” value [10, 21] was 0. The “Giant foxtail plant response rating” value [10, 22] was 0, the “Plant response rating, Giant foxtail” value [10, 23] was 0 and the “Plant response rating, Giant foxtail” value [10, 24] was 0. For the same compound, the “Ducksalad plant response rating” value [11, 25] was 0, the “Ducksalad plant response rating” value [11, 26] was 0 and the “Ducksalad plant response rating” value [11, 27] was 0. The “Ducksalad plant response rating” value [11, 28] was 0, the “Morningglory plant response rating” value [12, 18] was 0 and the “Morningglory plant response rating (0 to 10 scale)” value ([12]; Preemergence, Rate 125 g/ha) was 0. For the same compound, the “Morningglory plant response rating” value [12, 19] was 0, the “Morningglory plant response rating” value [12, 20] was 0 and the “Morningglory plant response rating” value [12, 21] was 0. For the same compound, the “Morningglory plant response rating” value [12, 22] was 0, the “Plant response rating, Morningglory” value [12, 23] was 2 and the “Plant response rating, Morningglory” value [12, 24] was 3. The “Blackgrass plant response rating” value [13, 18] was 0, the “Blackgrass plant response rating (0 to 10 scale)” value ([13]; Preemergence, Rate 125 g/ha) was 0 and the “Blackgrass plant response rating” value [13, 19] was 0. For the same compound, the “Blackgrass plant response rating” value [13, 20] was 0, the “Blackgrass plant response rating” value [13, 21] was 0 and the “Blackgrass plant response rating” value [13, 22] was 0. For the same compound, the “Plant response rating, Blackgrass” value [13, 23] was 0, the “Plant response rating, Blackgrass” value [13, 24] was 0 and the “Nutsedge plant response rating” value [14, 18] was 0. The “Nutsedge plant response rating (0 to 10 scale)” value ([14]; Preemergence, Rate 125 g/ha) was 0, the “Nutsedge plant response rating” value [14, 20] was 0 and the “Nutsedge plant response rating” value [14, 21] was 0. The “Nutsedge plant response rating” value [14, 22] was 0, the “Plant response rating, Nutsedge” value [14, 23] was 0 and the “Plant response rating, Nutsedge” value [14, 24] was 0. The “Barnyardgrass plant response rating” value [15, 25] was 0, the “Barnyardgrass plant response rating” value [15, 26] was 0 and the “Barnyardgrass plant response rating” value [15, 27] was 0. The “Barnyardgrass plant response rating” value [15, 28] was 0, the “Cocklebur plant response rating” value [16, 18] was 0 and the “Cocklebur plant response rating (0 to 10 scale)” value ([16]; Preemergence, Rate 125 g/ha) was 0. For the same compound, the “Cocklebur plant response rating” value [16, 19] was 0, the “Cocklebur plant response rating” value [16, 20] was 0 and the “Cocklebur plant response rating” value [16, 21] was 0. The “Cocklebur plant response rating” value [16, 22] was 0, the “Plant response rating, Cocklebur” value [16, 23] was 0 and the “Plant response rating, Cocklebur” value [16, 24] was 0. For the same compound, the “Crabgrass plant response rating” value [17, 18] was 0, the “Crabgrass plant response rating (0 to 10 scale)” value ([17]; Preemergence, Rate 125 g/ha) was 0 and the “Crabgrass plant response rating” value [17, 19] was 0. The “Crabgrass plant response rating” value [17, 20] was 2, the “Crabgrass plant response rating” value [17, 21] was 0 and the “Crabgrass plant response rating” value [17, 22] was 0. For the same compound, the “Plant response rating, Crabgrass” value [17, 23] was 0 and the “Plant response rating, Crabgrass” value [17, 24] was 0.
